Laboratory results published in patent US20060223780A1, “Method for administration of capecitabine” (priority 2005, published 2006).

Tests used:
MX-1 = conditions: cited from earlier work
tumor [1] = assay: Experiment 2 data: Gompertzian growth / drug effect (DE) population modelling with NONMEM; format: in vivo; conditions: for time of maximal DE after start of treatment, average / time of maximal DE after start of treatment, range: individual data; for time of maximal drug effect (DE) after start of treatment / Day on which the drug effect (DE) is maximal, F'(x)≈0: pooled data; for Day on which the drug effect (DE) is maximal, F'(x)≈0: start of treatment day 17
Procedure: Therefore, the data were then analyzed for the approved (14/7) chemotherapy drug schedule by measuring at each time point after the initiation of therapy the ratio of the (data-derived) expected Gompertzian growth rate in the unperturbed (control) state compared with that observed in the treated state. Curve-fitting was performed by non-linear mixed-effect population modeling using NONMEM software.
The Analysis performed used a non-linear mixed effects population modelling approach with the NONMEM software:
A) with the Gompertzian growth model (TV: tumor volume): • dTV/dt=α*TV−((α/log(TVinf))*TV*log(TV))
B) and the drug effect (DE) model • dTV/dt=α*TV−((α/log(TVinf)*TV*log(TV))*(1−DE)

tumor [2] = assay: Experiment 2: schedules at the same daily dosages (survival, tumor volume, body weight); format: in vivo
From the text: Following is the design of the final experiment with the schedules and dosages used (Table 2): […]

[3] = approved dose and schedule of capecitabine; cited from earlier work
MAXF 401 = conditions: cited from earlier work
[4] = Schedule C (2 d on, 5 d off), even at the lowest daily dosages
[5] = non toxic doses, compared between schedules, p.o.

CCCCCOC(=O)Nc1nc(=O)n([C@@H]2O[C@H](C)[C@@H](O)[C@H]2O)cc1F [capecitabine, 5′-deoxy-5-fluoro-N-[(pentyloxy)-carbonyl]-cytidine]
toxicity (death of mice) (MX-1; [4]): most of the mice died | antitumor efficacy (tumor growth inhibition after 6 weeks of treatment) (MX-1; [5]): equivalent | time of maximal DE after start of treatment, average (tumor [1]; 1.5 mmol/kg/day): 8.3 days | time of maximal DE after start of treatment, range (tumor [1]; 1.5 mmol/kg/day): 6 to 11 days | time of maximal drug effect (DE) after start of treatment (tumor [1]; 1.5 mmol/kg/day): 10 days | Day on which the drug effect (DE) is maximal, F'(x)≈0 (tumor [1]; 1.5 mmol/kg/day): 27 | time of maximal DE after start of treatment, average (tumor [1]; 2.25 mmol/kg/day): 10.1 days | time of maximal DE after start of treatment, range (tumor [1]; 2.25 mmol/kg/day): 5 to 18 days | time of maximal drug effect (DE) after start of treatment (tumor [1]; 2.25 mmol/kg/day): 8 days | Day on which the drug effect (DE) is maximal, F'(x)≈0 (tumor [1]; 2.25 mmol/kg/day): 25 | time point of maximum impact of treatment (averages), into therapy (tumor [1]; all dose levels analyzed, 14/7 schedule): 8.3 to 10.1 days | toxicity (tumor [2]; higher 2 dose levels, 14 days of treatment compared to shorter treatment durations (dose comparison, Tables 4-1, 4-2)): increased levels of toxicity | safety profile (tumor [2]; higher daily dosage, reduced number of treatment days, reintroduced after a rest period): same or a better safety profile | toxicity (tumor [2]; higher dose levels 24, 14 days of treatment compared to shorter treatment durations (schedule comparison, Tables 5-1, 5-2)): increased levels of toxicity | survival curves (tumor [2]; lower 2 dose ranges, 14 days on/7 days off vs 7 days on/7 days off): similar | efficacy (tumor volume), schedule comparison at the same daily dosages (tumor [2]; lowest dose level): advantage in efficacy towards the 14 days on/7 days off schedule | efficacy (tumor [2]; schedules with a fewer number of treatment days, at higher dose levels): higher efficacy | tumor volume reduction (tumor [2]; two lowest dose levels, 14 days on/7 days off vs 7 days on/7 days off): similar | median time to onset of hand-foot syndrome [3]: about 79 days | toxicity (death of mice) (MAXF 401; [4]): most of the mice died | antitumor efficacy (tumor growth inhibition after 6 weeks of treatment) (MAXF 401; [5]): equivalent
